± gives the expanded uncertainty stated by the source.
Key:
[1] = Molar enthalpy of transition or fusion; settings: Crystal
[2] = for mass density: 101.33 kPa, Liquid, Pycnometric method

## CCCCn1cc[n+](C)c1.F[P-](F)(F)(F)(F)F [1-butyl-3-methylimidazolium hexafluorophosphate]
[1]
  Molar enthalpy of transition or fusion: 4.685 ± 0.01 kcal/mol
[2]; 298.23 K
  mass density: 1365.95 ± 0.55 kg/m3
[2]; 302.89 K
  mass density: 1362.05 ± 0.56 kg/m3
[2]; 307.9 K
  mass density: 1357.94 ± 0.57 kg/m3
[2]; 312.67 K
  mass density: 1353.99 ± 0.58 kg/m3
[2]; 317.58 K
  mass density: 1349.92 ± 0.59 kg/m3
[2]; 322.33 K
  mass density: 1346.02 ± 0.61 kg/m3
[2]; 327.16 K
  mass density: 1342.02 ± 0.62 kg/m3
[2]; 344.23 K
  mass density: 1328.03 ± 0.65 kg/m3
[2]; 348.93 K
  mass density: 1324.35 ± 0.67 kg/m3
[2]; 353.47 K
  mass density: 1320.69 ± 0.68 kg/m3
[2]; Crystal
  Triple point temperature: 283.51 ± 0.12 K
[2]; Glass, Adiabatic calorimetry
  Glass transition temperature: -82.5 ± 2 °C
